The record followed here is a melting point compilation (Tetko et al.; mined from patent text by program, amines drawn as free bases though some values may be those of a salt).

By melting point is commonly meant the temperature, or range, at which the solid turns liquid. With `O=C(O)C(=O)c1ccc(OCc2cc3ccccc3o2)cc1`, the melting point is 120 °C. In turn, `CCCCOc1ccc(NS(=O)(=O)c2ccc(N3CCNC3=O)cc2)cc1` had a melting point of 223 to 225 °C.

In the case of `NS(=O)(=O)c1ccc(CCN2C(=O)c3ccccc3C2=O)s1`, the melting point was in the range of 226 to 229 °C. In turn, `OC1(c2ccc(F)c(F)c2)CCC2(CC1)OCCO2` returned a melting point of 118 to 120 °C. With `O=C1CCc2ccc(OCc3ccccc3)cc21`, the melting point was in the range of 99 to 101 °C. The value for `COc1cc(C(=O)O)ccc1Cn1cc(/C=C/C(=O)N2CCCC2)c2ccc(/C=C/C(=O)N3CCCC3)cc21` was 286 to 288 °C; that for `N#CC(NC(=O)C(F)(F)C(F)(F)C(F)(F)F)c1ccc(Cl)cc1` (configuration not stated) was 93 to 95 °C. As for `CCCOc1ccccc1-c1cc(C)c(C(N)=O)c(=O)[nH]1`, the melting point fell in the range of 239 to 242 °C. As for `O=c1oc(=O)c2ccsc2c2sccc12`, the melting point fell in the range of 260 to 263 °C.

For `O=C(O)CCCCc1cn(-c2cccnc2)c2ccccc12`, the melting point was 122 to 124 °C. As to `N#CC(C(=O)Nc1ccccc1Cl)C(=O)c1nn(-c2ccccc2)c2c1Cc1ccccc1-2` (configuration not stated), the melting point was 295 to 297 °C. `CN1C(=O)CC[C@]2(C)c3ccc(-c4cccc5cnccc45)cc3CC[C@@H]12`: the melting point was 182 to 184 °C. Compound `O=c1c2ccc(O)cc2[nH]c2c([N+](=O)[O-])ccc(Cl)c12` showed a melting point of 292 to 294 °C. Regarding `N=C(NC(=O)c1ccccc1)Oc1ccccc1`, the melting point came to 125 °C. For the compound `Cc1nc(C)c(-c2ccnc(Nc3ccc(N4CCSCC4)cc3)n2)s1`, the melting point is 173 to 174 °C. Compound `CCCCN1CC(O)N(c2cc(OC)c(Cl)cc2F)C1=S` (configuration not stated) came in with a melting point of 137 to 138 °C. The compound `CO[C@H]1O[C@@H](C)[C@@H]2[C@H](/C=C/[C@H]3CCC[C@H](C)N3C(=O)OC(C)(C)C)[C@H]3CCCC[C@@H]3C[C@H]12` displayed a melting point of 90.5 to 92.5 °C. For the compound `CN1C(=O)CCC2(C)c3ccc(NC(=O)c4ccccc4)cc3CCC12` (single isomer, unassigned; (+)), the melting point was 220 to 222 °C.

Regarding `CCCCCCNc1nc(N)ccc1[N+](=O)[O-]`, the melting point lay within 69 to 73 °C. Regarding `CCN(CC1CCCC1)c1nc2ccccc2cc1CN(Cc1cc(C(F)(F)F)cc(C(F)(F)F)c1)c1nnc(C)o1`, the melting point lay in the range of 126 to 127 °C. Regarding `Cc1ccccc1OCC1NCCS1` (configuration not stated), the melting point was 66 to 68 °C.

Compound `O=[N+]([O-])c1cccc(-c2nnc(Nc3cccc(Br)c3)s2)c1` showed a melting point of 228 to 231 °C. On to `COc1ccc(-c2ccc(C(C)C)cc2)c(C(=O)Nc2ccc(N3CCN(CC(N)=O)CC3)cc2)c1`, for which the melting point was in the range of 207 to 209 °C. The compound `Cc1ccc(/C=C/C2=CCN(Cc3nc4ccccc4[nH]3)CC2)o1` showed a melting point of 191 to 193 °C. `CC1(C)Oc2ccc([N+](=O)[O-])cc2C(n2ccccc2=O)=C1NC(=O)C(F)(F)F`: the melting point was found to be 189 °C. In turn, `CCOC(=O)C(=CNc1cc(C)nn1CC)C(=O)OCC` gave a melting point of 60 to 67 °C. `COc1cc2c(c(Cl)c1Cl)C(=O)CC2`: the melting point was in the range of 154 to 156 °C. `O=C1CCCc2c1ccc(OCc1ccccc1)c2Cl` displayed a melting point of 99 to 100 °C. Compound `COc1ccc(-c2ccn(-c3ccc4c5c(n(C)c4c3)CN(C(=O)OC(C)(C)C)CC5)c(=O)c2)cc1` showed a melting point of 306 to 308 °C. Consider `Cc1c(C(N)=O)oc2nn(Cc3ccccc3)c(C)c12`, for which the melting point lay in the range of 228 to 230 °C. Consider `NC(=S)Nc1ccc(CCNCc2cccc(Cl)c2)cc1`, for which the melting point was in the range of 132 to 134 °C. `Cc1cccc([N+](=O)[O-])c1CNc1cccn2c(Cl)c(C)nc12` gave a melting point of 142 to 144 °C. In turn, `COCC1CCCN1S(=O)(=O)c1ccc2c(c1)C1(OCCCO1)C(=O)N2CCC#N` (configuration not stated) displayed a melting point of 138 to 141 °C.

On to `Cc1nnc2n1-c1ccccc1C(c1ccc(Cl)cc1)=NC2NC(=O)Nc1ccccn1` (configuration not stated), for which the melting point lay in the range of 274 to 278 °C. Consider `N=C(N)NCCc1ccc(OCCCCC(c2ccccc2)(c2ccccc2)c2ccccc2)cc1`, for which the melting point lay within 119 to 121 °C. Compound `Cn1cc(-c2ccc(Cl)cc2Cl)c(=O)cc1C(F)(F)F` registered a melting point of 205 to 206 °C. The compound `COc1ccc(-c2c(Cl)c(CN3C(=O)CCC3=O)nc3sc4c(F)c(O)ccc4c23)cc1` returned a melting point of 294 to 295 °C.

In the case of `C=Cc1ccc(OC)c(OC)c1[N+](=O)[O-]`, the melting point lay in the range of 140 to 141 °C. Compound `Cn1cc(-c2cccc(Cl)c2)c(=O)c(-c2ccc(Cl)c(Cl)c2)c1` showed a melting point of 107 to 110 °C. As to `O=C(C=CCN1CCN(C[C@H]2CCC(=O)O2)CC1)Nc1cc2c(Nc3ccc(F)c(Cl)c3)ncnc2cc1OCC1CC1`, the melting point was 145 to 150 °C. As for `c1cc2c(cn1)OCCN2`, the figure is 167 to 169 °C; as for `CN1CCN(CCOc2ccc(Nc3ncc4ccc(-c5cccnc5)n4n3)cc2)CC1`, 107 to 110 °C; as for `CCOC(=O)C(Cc1nc2ccccc2n1Cc1ccc([N+](=O)[O-])cc1)C(=O)OCC`, 135 °C. For `COc1cc2c(c(OC(C)=O)c1)C1CCC3(C)C(=O)C(Cl)CC3C1CC2` (configuration not stated), the melting point was 164 to 166 °C. Turning to `O=C(O)Cc1ccc(-c2ccc(O)cc2)c(F)c1`, the melting point lay within 208 to 210 °C. `CC1(c2onc(-c3ccc(O)cc3)c2-c2ccccc2)CC1` showed a melting point of 212 to 214 °C. The value for `CCCCCCCCCCOC(=O)C1=C(C)OC(N)=C(C(=O)OCC)C1c1cccc([N+](=O)[O-])c1` (configuration not stated) was 100 °C.

In turn, `CC(C)c1cc(C(C)C)c(CC(=O)NS(=O)(=O)Oc2c(C(C)C)cc(CNC(=O)CN)cc2C(C)C)c(C(C)C)c1` registered a melting point of 193 to 195 °C. Turning to `CC(C)Oc1c(C(=O)O)n(C)c2ccc(OCc3ccccc3)cc12`, the melting point was determined as 136 °C. The value for `COC(=O)c1cn2c(=O)c(Br)c(C)nc2s1` was 199 to 201 °C; that for `CCCN(Cc1ccc(-c2ccccc2-c2nc(=O)o[nH]2)cc1)c1nc(C)ncc1C(=O)O` was 182 to 186 °C; that for `COc1ccc(Br)cc1C(C)(C)CCl` was 82 to 84 °C. With `CC(C)C(=O)N[C@@H](CS)C(=O)NCCSC(=O)C(C)(C)C`, the melting point lay within 120 to 122 °C.

On to `CCOC(=O)c1ccc(-c2ccc(OCCCNC3CC3)c(-c3ccc4c(c3)C(C)(C)CCC4(C)C)c2)cc1`, for which the melting point was 141 °C. The compound `O=c1oc(=O)n(-c2ccccc2)c2ccccc12` gave a melting point of 183 °C.

The compound `NS(=O)(=O)c1ccc(-c2ccccc2-c2ccc(F)cc2)cc1` returned a melting point of 187 to 188 °C. `Cc1nc(NC(=N)N)sc1C(=O)Nc1cccc(OCC(=O)O)c1`: the melting point turned out to be 284 °C. Regarding `CNC(=O)c1cccnc1N`, the melting point is 140 to 142 °C. In turn, `Cc1nc(Cl)cc(NN)n1` gave a melting point of 146 °C. Regarding `c1ccc(-c2ncc3[nH]c4c(c3n2)CCCC4)cc1`, the melting point was in the range of 197 to 198 °C. Regarding `COc1c(C)c(NC(=O)CC(C)(C)C)c(C)c2c1OCC2c1ccc(C(C)C)cc1` (configuration not stated), the melting point fell in the range of 150 to 151 °C.

`Cc1cccc(-c2[nH]c(C(C)C)nc2-c2cccc(-c3ccc4c(c3)C=CS4(=O)=O)c2)n1`: the melting point was 137 to 138 °C. On to `N#Cc1cccc(CN2C(=O)c3ccccc3C2=O)c1`, for which the melting point lay in the range of 147 to 149 °C. With `COc1ccc(NC(=O)c2ccc(C3=NC(C)(C)Cc4cc(OC)c5c(c43)CC(C)(C)O5)cc2)cc1`, the melting point lay within 120 to 122 °C. The compound `CC(=O)NCCc1ccc(CO)cc1` registered a melting point of 72 to 73 °C. In the case of `CCCCc1cn(Cc2ccc(C(=O)O)cc2)c2ccccc2c1=O`, the melting point was determined as 224 °C. For the compound `O=C1c2ccccc2C(=O)N1c1ncnc2[nH]ccc12`, the melting point lay within 276 to 277 °C. The compound `NS(=O)(=O)c1ccc(-n2nc(C(F)(F)F)c(CO)c2-c2ccccc2)cc1` yielded a melting point of 179 to 180 °C. The compound `CS(=O)(=O)c1ccc(C(=O)C(C#N)C(=O)C2CC2)c(Cl)c1-c1nccs1` (configuration not stated) yielded a melting point of 162 to 164 °C.

`CN(C)C(=O)C(O)C1c2ccccc2CCc2ccccc21` (configuration not stated) yielded a melting point of 210 to 214 °C. With `COC(=O)COc1ccc(NC(=O)COCc2ccccc2)cc1`, the melting point was 76 to 77.5 °C. In turn, `COc1cc(C=CC(=O)Nc2c(-c3ccccc3)c3cc(C)cc(C)c3oc2=O)cc(OC)c1OC(C)=O` gave a melting point of 245 to 248 °C. For the compound `COc1ccc(S(=O)(=O)CC(C)(C)CS(=O)(=O)c2ccc(OC)cc2)cc1`, the melting point is 115 to 117 °C. Compound `Clc1ccc(-c2cc(-c3cccs3)[nH]n2)cc1` showed a melting point of 217 °C. The value for `COc1ccc(-c2ccc(N)cc2)cc1OC1CCCC1` was 94 to 95 °C; that for `CS(=O)(=O)c1ccc(-c2cnn(CC(F)(F)F)c(=O)c2NCCCO)cc1` was 152 to 154 °C; that for `Cc1ccc(N2C(=O)NC(NCC(C)C)NC2=O)cc1` was 297 to 301 °C.

The compound `O[C@@H]1CN(C2CCCCC2)C[C@@H]1NCc1ccccc1` (relative stereo) had a melting point of 108 to 110 °C. In turn, `O=C(O)c1ccc(-c2nc(-c3ccccc3)ccc2Cl)cc1` registered a melting point of 254 to 255 °C. The value for `Cc1nccn1CC#CCN1CCCC1=O` was 81 to 85 °C. Compound `CN(Cc1cc2c(=O)c(C(=O)NCc3ccc(Cl)cc3)cn(C)c2s1)CC(O)c1cccnc1` (single isomer, unassigned; (+)) came in with a melting point of 132 to 135 °C. The value for `Cc1cc(Nc2cc(-c3cccc(N4CCc5c(cc6n5CCCC6)C4=O)c3CO)cn(C)c2=O)n[nH]1` was 199 to 200 °C; that for `Cc1ccc(-c2ccc(C(=O)Nc3cc4ncc(CN5CCCC5)cc4cc3C)c(F)c2)cc1` was 176 to 179 °C. In turn, `O=C(O)CCCCCCCn1nc(-c2ccccc2)c(-c2ccccc2)n1` yielded a melting point of 86 to 88 °C.

Regarding `Cc1nc(-c2cccc(CN(C(=O)Nc3ccc(Br)cc3)c3ccccc3)c2)no1`, the melting point lay within 145 to 146 °C. In the case of `Cc1nn(C)c(O)c1C(=O)c1ccc(Cl)c(C)c1Cl`, the melting point lay in the range of 149 to 150 °C. The value for `OC1(c2ccc(Cl)c(Cl)c2)CCN(CCCOc2ccc(Cl)c(Cl)c2)CC1` was 118 °C.
